Data set [1] concerns rat uterine decidualization. The data set can be described thus: Rat decidualization assay. Format: in vivo. To be noted: ovariectomized female Sprague-Dawley rats; for Estimated average EC50 for dose-response curves (decidual response): s.c. As to the method:
2. Rat Decidualization Assay
b. Animals (RACUC Protocol #5002)
The animals are treated once daily for seven days.
Uteri are removed and trimmed of fat.
Body weight: Mean total animal body weight (default-kg)
Decidual response: [(D-C)/C]×100%

The target in a further data set is T1, human PR (Homo sapiens, UniProt P06401).
T1 construct: expressed in transfected cells; host or cells: CV-1 cells, electroporated with pLEM-hPR-B and pGL3-2xPRE-luciferase
T1 sequence (P06401 1-933): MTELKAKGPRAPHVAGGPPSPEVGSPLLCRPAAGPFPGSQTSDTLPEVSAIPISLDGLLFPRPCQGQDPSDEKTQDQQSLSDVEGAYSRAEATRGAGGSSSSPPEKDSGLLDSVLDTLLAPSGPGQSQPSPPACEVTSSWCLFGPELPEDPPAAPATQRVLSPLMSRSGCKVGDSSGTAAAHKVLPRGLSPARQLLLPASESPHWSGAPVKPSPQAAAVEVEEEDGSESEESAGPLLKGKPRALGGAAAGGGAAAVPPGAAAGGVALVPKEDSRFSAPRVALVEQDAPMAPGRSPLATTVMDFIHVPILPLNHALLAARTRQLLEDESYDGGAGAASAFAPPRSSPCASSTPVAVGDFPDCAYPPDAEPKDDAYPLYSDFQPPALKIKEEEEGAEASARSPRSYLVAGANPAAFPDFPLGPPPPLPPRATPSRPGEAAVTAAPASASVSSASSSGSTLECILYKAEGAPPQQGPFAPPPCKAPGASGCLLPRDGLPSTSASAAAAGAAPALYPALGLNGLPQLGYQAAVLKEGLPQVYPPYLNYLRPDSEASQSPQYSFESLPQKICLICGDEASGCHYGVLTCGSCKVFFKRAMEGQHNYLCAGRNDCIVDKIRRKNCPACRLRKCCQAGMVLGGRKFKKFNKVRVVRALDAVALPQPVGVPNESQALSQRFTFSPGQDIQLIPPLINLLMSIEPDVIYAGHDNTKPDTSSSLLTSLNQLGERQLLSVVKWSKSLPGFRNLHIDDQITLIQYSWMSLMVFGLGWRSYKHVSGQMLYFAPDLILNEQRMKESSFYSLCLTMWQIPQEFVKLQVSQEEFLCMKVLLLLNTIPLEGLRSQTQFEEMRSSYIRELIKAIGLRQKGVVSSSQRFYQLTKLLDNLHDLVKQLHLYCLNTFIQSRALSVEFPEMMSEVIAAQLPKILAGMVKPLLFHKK
The data set can be described thus: PRE-luciferase assay in CV-1 cells (hPR CV-1). Format: cell-based. As to the method: 3. PRE-luciferase Assay in CV-1 Cells
The object of this assay is to determine a compound's progestational or antiprogestational potency based on its effect on PRE-luciferase reporter activity in CV-1 cells co-transfected with human PR and PRE-luciferase plasmids. The materials methods used in the assay are as follows.
DMEM (BioWhittaker) containing 10% (v/v) fetal bovine serum (heat inactivated), 0.1 mM MEM non-essential amino acids, 100 U/ml penicillin, […] streptomycin, and 2 mM GlutaMax (GIBCO, BRL). Experimental medium: DMEM (BioWhittaker), phenol red-free, containing 10% (v/v) charcoal-stripped fetal bovine serum (heat-inactivated), 0.1 mM MEM non-essential amino acids, 100 U/ml penicillin, […] streptomycin, and 2 mM GlutaMax (GIBCO, BRL).
b. Cell Culture Transfection Treatment, and Luciferase Assay
Stock CV-1 cells are maintained in growth medium. Co-transfection is done using 1.2×10^7 cells, […] pLEM plasmid with hPR-B inserted at Sphl and BamHl sites, 10 mg pGL3 plasmid with two PREs upstream of the luciferase sequence, and 50 mg sonicated calf thymus DNA as carrier DNA in […]. Electroporation is carried out at 260 V and […] in a Biorad Gene Pulser II. After electroporation, cells are resuspended in growth medium and plated in 96-well plate at 40,000 cells/well in 200 μl. Following overnight incubation, the medium is changed to experimental medium. […] Twenty-four hr. after treatment, the medium is discarded, cells are washed three times with D-PBS (GIBCO, BRL). Fifty μl of cell lysis buffer (Promega, Madison, Wis.) is added to each well and the plates are shaken for 15 min in a Titer Plate Shaker (Lab Line Instrument, Inc.). Luciferase activity is measured using luciferase reagents from Promega.
Each treatment consists of at least 4 replicates. Log transformed data are used for analysis of variance and nonlinear dose response curve fitting for both agonist and antagonist modes. Huber weighting is used to downweight the effects of outliers. EC50 or IC50 values are calculated from the retransformed values.

For data set [2], the system named is alkaline phosphatase activity in T47D cells. The data set can be described thus: T47D cell alkaline phosphatase assay. Format: cell-based. As to conditions: antagonist activity in the presence of 1 nM progesterone, 24 hr. On the procedure: 4. T47D Cell Alkaline Phosphatase Assay
The purpose of this assay is to identify progestins or antiprogestins by determining a compound's effect on alkaline phosphatase activity in T47D cells.
DMEM:F12 (1:1) (GIBCO, BRL) supplemented with 5% (v/v) charcoal stripped fetal bovine serum (not heat-inactivated), 100 U/ml penicillin, 100 μg/ml streptomycin, and 2 mM GlutaMax (GIBCO, BRL). b. Alkaline Phosphatase Assay Buffer
I. 0.1 M Tris-HCl, pH 9.8, containing 0.2% Triton X-100
II. 0.1 M Tris-HCl, pH 9.8 containing 4 mM p-nitrophenyl phosphate (Sigma). c. Cell Culture and Treatment
Frozen T47D cells were thawed in a 37° C. water bath and diluted to 280,000 cells/ml in culture medium. To each well in a 96-well plate (Falcon, Becton Dickinson Labware), 180 μl of diluted cell suspension was added. Twenty μl of reference or test compounds diluted in the culture medium was then added to each well. […] The cells were incubated at 37° C. in a 5% CO2/humidified atmosphere for 24 hr. […]
d. Alkaline Phosphatase Enzyme Assay
At the end of treatment, the medium was removed from the plate and fifty μl of assay buffer I was added to each well. The plates were shaken in a titer plate shaker for 15 min. […]
For reference and test compounds, a dose response curve is generated for dose (X-axis) vs. the rate of enzyme reaction (slope) (Y-axis). […] EC50 or IC50 values are calculated from the retransformed values.

The subject of another data set is T47D cells. The data set can be described thus: T47D cell proliferation assay (BrdU incorporation). The class given is cell-based. On the procedure:
1. T47D Cell Proliferation Assay
The objective of this assay is the determination of progestational and antiprogestational potency by using a cell proliferation assay in T47D cells. A compound's effect on DNA synthesis in T47D cells is measured.
DMEM:F12 (1:1) (GIBCO, BRL) supplemented with 10% (v/v) fetal bovine serum (not heat-inactivated), 100 U/ml penicillin, […] streptomycin, and […] GlutaMax (GIBCO, BRL).
Minimum Essential Medium (MEM) (#51200-038GIBCO, BRL) phenol red-free supplemented with 0.5% charcoal stripped fetal bovine serum, 100 U/ml penicillin, […] streptomycin, and 2 mM GlutaMax (GIBCO, BRL). […]
At the end of BrdU labeling, the medium is removed and BrdU incorporation is measured using a cell proliferation ELISA kit (#RPN 250, Amersham Life Science) according to manufacturer's instructions. […] Then 25 μl of 1 M sulfuric acid is added to each well to stop color reaction and optical density is read in a plate reader at 450 nm within 5 min.
Square root-transformed data are used for analysis of variance and nonlinear dose response curve fitting for both agonist and antagonist modes. […] EC50 or IC50 values are calculated from the retransformed values.
Trimegestone and medroxyprogesterone acetate (MPA) are reference progestins and RU486 is the reference antiprogestin. All reference compounds are run in fill dose-response curves and the EC50 or IC50 values are calculated.

Values joined by “and” are separate entries in the source; they are usually repeats but may differ in a detail not shown here. Equal values may be shown once.

For the compound `C#C[C@]1(O)CC[C@H]2[C@@H]3CCC4=CC(=O)CC[C@@H]4[C@H]3C(=C)C[C@@]21CC` [3-Ketodesogestrel], the “Estimated EC50 for uterine weight (decidual response)” value in data set [1] (s.c. once daily for seven days, individual studies) was 0.10 mg/kg, s.c. and 0.06 mg/kg, s.c. and 0.11 mg/kg, s.c. Also, the “Estimated average EC50 for dose-response curves (decidual response)” value in data set [1] is listed as 0.10 mg/kg, s.c. In the case of `O=c1[nH]c2ccc(-c3cccc([N+](=O)[O-])c3)cc2n1Cc1ccccc1` [Compound 2, 1-Benzyl-6-(3-nitro-phenyl)-1,3-dihydro-benzoimidazol-2-one], at human PR, the IC50 was found to be 230 nM. Still for that read-out and setting: under `Cn1c(=O)[nH]c2cc(-c3cccc([N+](=O)[O-])c3)ccc21` [Compound 5] stands 750 nM; under `CC(C)n1c(=O)[nH]c2ccc(-c3cccc([N+](=O)[O-])c3)cc21` [Compound 6], 147 nM; under `CC(C)n1c(=O)[nH]c2ccc(-c3cccc(Cl)c3)cc21` [Compound 7], 155 nM. With `O=C1CSc2cc(-c3cccc([N+](=O)[O-])c3)ccc2N1` [Compound B1, 7-(3-Nitro-phenyl)-4H-benzo[1,4]thiazin-3-one], the IC50 on human PR amounted to 220 nM.

In turn, `CCC1Sc2cc(-c3cccc([N+](=O)[O-])c3)ccc2NC1=O` (stereo not shown) [Compound B2] yielded an IC50 at human PR of 295 nM. With `CN1CC(=O)Nc2ccc(-c3cccc(Cl)c3)cc21` [Compound C1, 6-(3-Chloro-phenyl)-4-methyl-3,4-dihydro-1H-quinoxalin-4-one], the IC50 in data set [2] came out at 600 nM. Take `O=C1CNc2cc(-c3cccc(Cl)c3)ccc2N1` [Compound C2]: the IC50 on human PR is 525 nM. Regarding `CN1CC(=O)Nc2ccc(-c3cc(C#N)cs3)cc21` [Compound C3, 5-(3,4-Dihydro-4-methyl-2-oxo-quinaxalin-6-yl)thiophene-3-carbonitrile], the IC50 in data set [2] came to 300 nM. As a reminder, the melting point is the temperature of the solid-liquid transition. `CCCCN1CC(=O)Nc2ccc(-c3cccc(Cl)c3)cc21` [Compound C6, 4-(n-Butyl)-6-(3-chloro-phenyl)-3,4-dihydro-1H quinoxalin-2-one] had a melting point of 110 to 115 °C. The compound `CC(C)OC(=O)N1CC(=O)Nc2ccc(-c3cccc(Cl)c3)cc21` [Example 29, Isopropyl 7-(3-chlorophenyl)-3-oxo-3,4-dihydroquinoxalin-1(2H)-carboxylate] gave a melting point of 174 to 176 °C. Consider `C#C[C@]1(O)CC[C@H]2[C@@H]3CCC4=CC(=O)CC[C@@H]4[C@H]3CC[C@@]21CC` [Levonorgestrel], for which the “Estimated average EC50 for dose-response curves (decidual response)” value in data set [1] was 0.10 mg/kg, s.c. Regarding `CC#C[C@]1(O)CC[C@H]2[C@@H]3CCC4=CC(=O)CCC4=C3[C@@H](c3ccc(N(C)C)cc3)C[C@@]21C` [RU486], the IC50 in the data set on T47D cells (read-out: Estimated IC50 (half-maximal decrease in trimegestone induced BrdU incorporation), in presence of 0.03 nM trimegestone (b226 prints 0.1), individual studies) was 0.016 nM and 0.018 nM.

As to `C[C@H](O)C(=O)[C@@]1(C)CC[C@H]2[C@@H]3CCC4=CC(=O)CCC4=C3CC[C@@]21C` [Trimegestone], the EC50 with T47D cells (individual studies, read-out: Estimated EC50 (half-maximal increase in BrdU incorporation)) was 0.017 nM and 0.014 nM and 0.019 nM.

The values are drawn from patent publication US6380235B1, “Benzimidazolones and analogues” (American Home Products Corporation, priority 1999, dated 2002).
